Where two headings read alike, the source gives them in different places.
Experiments:
CB2R [1] = biological target: T1, CB2R (Homo sapiens, UniProt P34972); experiment: double luciferase reporter screening system in HEK293-CB2 cells; assay type: cell-based
T1 construct: expressed in transfected cells; host or cells: HEK293 cells stably transfected with pIRES2-EGFP-CB2, pGL4.29 [luc2P/CRE/Hygro] and pRL-TK
Method: To generate the HEK293-CB2 cells, 5 × 10^5 HEK293 cells were cultured in a 60 mm culture dish for 12 h, washed with PBS, and then transfected with Lipofectamine 3000 reagent containing a test reporter plasmid, control reporter plasmid encoding Renilla luciferase, and effector plasmid. The ratio of the transfection plasmid pIRES2-EGFP-CB2, pGL4.29 [luc2P/CRE/Hygro], and pRL-TK was 2 μg, 10 μg, and 1μg, respectively. After a 24-htransfection, cells were selected and cultured in the medium containing G418 (800 μg·mL^−1) and hygromycin (400 μg·mL^−1) for two weeks. The surviving cells were picked and expanded as HEK293-CB2R cells.
Several aspects of the high-throughput screening system were optimized to ensure efficient and accurate application of the system for high-throughput data collection. To conduct high-throughput assays in 96-well plates, the number of cells seeded per well, incubation time, drug and AM630 concentrations, and the DMSO content were optimized. The dual luciferase assay was performed as described previously. […] Subsequently, the quantitative evaluation indexes of the high-throughput screening system, including the signal-to-background ratio, S/B = Msignal/Mbackground; signal window, SW = Msignal − Mbackground; signal-to-noise ratio, S/N = (Msignal − Mbackground)/SDbackground; signal background coefficient of variation, CV(%) = 100 × SDsignal/Msignal; and Z’ factor were determined to ensure its efficient and accurate application of the system in high-throughput data collection. Here, Z′ = 1 − 3(SDsignal + SDbackground)/|Msignal − Mbackground| [25], where M represents an average of the relative luminescence value and SD is the standard deviation of M.
The HEK293-CB2 cells from 10–40 passages were separately inoculated into 96-well plates at 5 × 10^3 cells per well. […] The results were expressed as relative luminescence values.
The HEK293-CB2 cells were inoculated on a 96-well culture plate with a density of 5 × 10^3 cells per well. […] The relative luminescence value was used to express the expression of CB2R.
Furthermore, the activation of the compounds on CB2R was also verified by using the CB2R inverse agonist AM630. The HEK293-CB2 cells were inoculated on a 6-well culture plate at a density of 5 × 10^4 cells per well. […] The expression of the CB2R gene is expressed by the relative luminescence value.

CB2R [2] = biological target: T1, CB2R; experiment: forskolin-stimulated cAMP accumulation assay in HEK293-CB2 cells; assay type: cell-based; details: forskolin 30 min, then compound 6 h, read-out: IC50 of inhibition of forskolin-stimulated cAMP
Method: After treatment, the cell supernatant was diluted with PBS (pH 7.2–7.4). The cells were lysed by repeated freeze–thaw cycles and being centrifuged for 20 min at 2000–3000 r.p.m. The concentration of cAMP in the cell lysate was determined according to the instructions of the cAMP kit.

mBMSCs cells = experiment: proliferation of BMSCs (CCK8); assay type: cell-based, rat; details: 1 μM, 48 h
Method: (§1) BMSCs were isolated from the femur of 1-day-old Wistar rats and cultured in a dish containing α-MEM supplemented with 10% FBS, 100 U·mL^−1 penicillin, […] streptomycin, and 1% L-Glutaminea in a humidified atmosphere of 5% CO2 for 24 h. The medium was changed every three days. The subculture cells (passage 2–4) were used for subsequent experiments. BMSCs were identified in terms of the morphological character and properties of differentiation into osteoblasts. This experiment was approved by the Bioethics Committee of Zhejiang University of Traditional Chinese Medicine.
(§2) The BMSCs cells were inoculated in a 96-well plate at a density of 1 × 10^4 cells per well and cultured at 37 °C for 24 h. […] The optical density (OD) value was determined at 450 nm. The BMSCs cells were treated as described above and cultured for seven days to measure the ALP activity according to the kit instructions or cultured for five days to stain ALP in the osteoblasts according to the following procedures. Briefly, cells were washed with pre-cooled PBS twice and stained with the alkaline phosphatase staining solution for 30 min at 37 °C. After discarding the dye solution, cells were rinsed with distilled water three times and observed and photographed under a light microscope.

[3] = system: osteoblasts derived from mBMSC; experiment: ALP activity of osteoblasts derived from BMSCs; assay type: cell-based, rat; details: 1 μM, seven days
Method: as §1, §2

[4] = system: osteoblasts derived from mBMSC; experiment: bone mineralization nodules of osteoblasts (alizarin red staining); assay type: cell-based, rat; details: 1 μM, 14 days
Method: as §1
Cells were treated as described above for 14 days to observe the bone mineralized nodule formation using alizarin red staining solution. Briefly, the cells were washed with pre-cooled PBS twice, fixed with 3.7% formaldehyde for 10 min, and stained with ARS dye (pH = 4.2) containing 40 mM alizarin redstain for 10 min. The morphology and number of bone mineralized nodules of osteoblasts were observed under a light microscope.

[5] = system: osteoclasts derived from RAW264.7 cells; experiment: TRAP activity of osteoclasts derived from RAW264.7 cells induced with RANKL; assay type: cell-based, murine; details: 1 μM, three-day treatment; enzyme activity and cell staining
Method: The murine macrophage RAW264.7 cell line, which has the potential to differentiate into osteoclasts under the induction of RANKL, was obtained from the Cell Bank of the Chinese Academy of Sciences (Shanghai, China). The cells were cultured in DMEM containing 10% (v/v), 1% (v/v) penicillin, and streptomycin (Beyotime, Shanghai, China) at 37 °C in humidified air with 5% CO2, and then subcultured every two days. For induction of the osteoclasts, RAW264.7 cells were incubated with 25 ng·mL^−1 RANKL for 72 h. Osteoclasts were identified by TRAP staining.
RAW264.7 cells were inoculated in a 96-well plate at a density of 1 × 10^4 cells per well. After a 24-h culture at 37 °C, cells were treated with the test compounds for 48 h and cell viability was determined with the CCK-8 kit according to the instructions. RAW264.7 cells were inoculated on a 96-well culture plate at a density of 1 × 10^4 cells per well, induced with […] of nuclear factor-κB receptor activator ligand (RANKL) to differentiate into osteoclasts for 72 h. […] Briefly, the cells were washed with sodium thiobarbital twice, lysed with 0.1% Triton X-100 (10 μL per well) for 10 min, and then incubated with 100 μL of TRAP reaction solution (0.02 g disodium nitrophenyl phosphate and 0.1 g potassium sodium tartrate dissolved in 10 mL deionized water with pH adjusted to 3.5 by addition of 1 mol·L^−1 HCl) for 30 min at 37 °C. The reaction was terminated with 1 mol·L^−1 of NaOH solution (100 μL per well) and the absorbance was determined at a wavelength of 405 nm. The TRAP activity was expressed by the amount (mole) of p-nitrophenol produced by 100 osteoclasts. For staining, the osteoclasts were treated as described above, stained according to the instruction of the TRAP staining kit, and observed and photographed under a light microscope.

[6] = HEK293-CB2 cells, pretreated with 1 μM AM630 for 30 min, then 1 μM compound 6 h

T1 sequence (P34972 whole entry): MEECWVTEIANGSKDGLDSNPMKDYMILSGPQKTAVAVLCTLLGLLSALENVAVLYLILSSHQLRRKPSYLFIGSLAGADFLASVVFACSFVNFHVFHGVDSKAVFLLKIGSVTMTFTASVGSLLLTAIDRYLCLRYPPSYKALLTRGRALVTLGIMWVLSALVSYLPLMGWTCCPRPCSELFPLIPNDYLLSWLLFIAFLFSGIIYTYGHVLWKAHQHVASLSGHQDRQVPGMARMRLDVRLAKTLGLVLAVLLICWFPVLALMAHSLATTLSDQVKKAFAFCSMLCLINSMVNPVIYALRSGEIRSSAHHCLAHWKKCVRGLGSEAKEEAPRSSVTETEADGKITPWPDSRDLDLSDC

| SMILES | signal average and standard deviation (positive control group) (CB2R [1]; screening system validation, forskolin 1 μM) | IC50 (CB2R [2]) | agonistic effect on CB2R (relative luminescence / fluorescence expression in HEK293-CB2) (CB2R [1]) | reversal of the agonistic effect on CB2R by AM630 (CB2R [1]) | proliferation of mBMSCs cells (mBMSCs cells) | ALP activity of osteoblasts derived from mBMSC [3] | matrix mineralization of osteoblasts derived from mBMSC [4] | agonistic effect on CB2R (relative luminescence / fluorescence expression in HEK293-CB2) (CB2R [1]; 1 μM, 6 h, HEK293-CB2 cells) | reversal of the agonistic effect on CB2R by AM630 (CB2R [1]; [6]) | TRAP activity of osteoclasts derived from RAW264.7 cells induced with RANKL [5] | reversal effect on the agonistic effect of HU308 on CB2R (CB2R [1]) |
| --- | --- | --- | --- | --- | --- | --- | --- | --- | --- | --- | --- |
| C=C[C@@]1(C)CC(=O)[C@]2(O)[C@@]3(C)[C@@H](O)CCC(C)(C)[C@@H]3[C@H](O)[C@H](OC(C)=O)[C@@]2(C)O1 [forskolin, reference compound] | 63.3 ± 4.4% |  |  |  |  |  |  |  |  |  |  |
| CC(=O)OCC1=C[C@@H]2OC(=O)C3=CO[C@@H](O[C@@H]4O[C@H](CO)[C@@H](O)[C@H](O)[C@H]4O)[C@H]1[C@@H]32 [Asperuloside] |  | 281 nM | could increase the fluorescence expression | could be abated by AM630 | had no effect on the proliferation |  |  |  |  |  |  |
| COC1=CC(=O)O[C@@H](CCc2ccc3c(c2)OCO3)C1 [Dihydromethysticin] |  | 35.7 nM |  |  | increased | increased | increased | could increase the fluorescence expression | could be abated by AM630 |  |  |
| COc1cc(O)ccc1/C=C/C(=O)c1ccc(O)cc1 [Echinatin] |  | 90.5 nM |  |  | increased | increased | increased | could increase the fluorescence expression | could be abated by AM630 | inhibited TRAP activity |  |
| C[C@H]1[C@H](C)CC[C@]2(C)CC[C@]3(C)C(=CC(=O)[C@@H]4[C@@]5(C)CC[C@@H](O)[C@](C)(C(=O)O)[C@@H]5CC[C@]43C)[C@H]12 [11-Keto-beta-boswellic acid] |  | 73 nM |  |  | increased | increased | increased | could increase the fluorescence expression | could be abated by AM630 | inhibited TRAP activity |  |
| COc1cc(/C=C/c2ccccc2)oc(=O)c1 [Desmethoxyyangonin] |  | 29.9 nM |  |  | increased | increased | increased | could increase the fluorescence expression | could be abated by AM630 | inhibited TRAP activity |  |
| COc1ccc(C(=O)c2c(C)n(CCN3CCOCC3)c3cc(I)ccc23)cc1 [AM630, reference compound] |  |  |  |  |  |  |  |  |  |  | mitigated |
| COc1ccc(/C=C/C(=O)c2c(O)cc(OC)cc2OC)cc1 [Flavokawain A] |  | 902 nM |  |  | increased | increased | increased | could increase the fluorescence expression | could be abated by AM630 | inhibited TRAP activity |  |
| O=c1c2cc(O)c(O)cc2oc2cc(O)c([C@@H]3O[C@H](CO)[C@@H](O)[C@H](O)[C@H]3O)c(O)c12 [Mangiferin] |  | 1170 nM | could increase the fluorescence expression | could be abated by AM630 | increased | increased | increased |  |  | inhibited TRAP activity |  |
| COc1cc(O)c(C(=O)/C=C/c2ccc(O)cc2)c(OC)c1 [Flavokawain C] |  | 5170 nM |  |  | had no effect on the proliferation |  |  | could increase the fluorescence expression | could be abated by AM630 |  |  |
| O=c1cc(-c2ccc(O)c(O)c2)oc2c([C@@H]3O[C@H](CO)[C@@H](O)[C@H](O)[C@H]3O)c(O)cc(O)c12 [Orientin] |  | 111 nM |  |  | had no effect on the proliferation |  |  | could increase the fluorescence expression | could be abated by AM630 |  |  |

From paper PMC8838898, “Identification of Novel Cannabinoid CB2 Receptor Agonists from Botanical Compounds and Preliminary Evaluation of Their Anti-Osteoporotic Effects” (Molecules, 2022)
